Reference: patent US10160766B1, “Benzopyranyl tetracycle compound and pharmaceutical composition having excellent anti-inflammatory effect comprising the same” (Spark Biopharma, Inc., priority 2017, dated 2018)

Key:
Type in all cases: cell-based
[1] = test system: NO release in Raw264.7 cells; experiment: Griess assay, inhibition of nitric oxide release; conditions: for NO Inhibition rate (%): 100 ng/mL LPS and compounds 24 hours, compared with control group; for inhibitory effect on NO release, in words, compared with Compound 1d: 100 ng/mL LPS, 24 hours
Experimental: Thus, the Griess assay was used to measure nitric oxide secretion for inflammation inhibition in Raw264.7 cells.
Raw 264.7 macrophage cell was cultured in Dulbecco Modified Eagle Medium (DMEM) with 10% (v/v) fetal bovine serum (FBS) and 1% (v/v) antibiotic-anti mycotic solution.
Cell was maintained in a 100 mm cell culture dish under cell culture conditions (5% CO2 incubator at 37° C. with humidified atmosphere).
Griess assay reagent was generated prior to the assay with the following contents listed below: N-(1-naphthyl) ethylenediamine dihydrochloride, 0.1% (m/v); sulfanilamide, 1% (m/v); phosphoric acid (85%); 5% (v/v) in deionized water.
Raw 264.7 cell was seeded in transparent 96-well plate and maintained for 1 day. Media was aspirated, and each well was washed with serum free DMEM for twice. Each well was refilled with serum-free DMEM.
Then 100 ng/mL LPS and compounds were treated afterward and cultured for 24 hours. After the incubation, the supernatant culture media was transferred to new 96-well plate and mixed with 50 μL of Griess assay reagent.
Media-reagent mixture was incubated at room temperature for several minutes. Absorbance was read at 548 nm. Four wells each were used for the control experiment, LPS and DMSO (without any compounds) treated well, and DMSO-only treated well. Blank values were measured.
Blank values were measured by mixing 50 μL of Griess assay reagent with […] and 1% antibiotic-antimycotic containing DMEM.
As for the compounds in which the double bond of the tetrahydropyridazine ring in Compound 1d is moved or eliminated, the inhibition rate of NO release was measured in the same manner as in Test Example 2.
The inhibition rate of NO release for Compounds 2a to 2o prepared in Example 2 was tested in order to confirm the anti-inflammatory effect for the above compounds.

Raw 264.7 cell = experiment: WST (water-soluble tetrazolium) analysis, relative cell viability; conditions: 100 ng/mL LPS and compounds 24 hours
Experimental: Relative cell viability of Compound 2a to 2o prepared in Examples 2 was measured by WST (water-soluble tetrazolium) analysis.
Raw 264.7 cell was seeded in transparent 96-well plate and maintained for 1 day.
Media was aspirated, and each well was washed with serum free DMEM for twice. Each well was refilled with serum-free DMEM. Then, 100 ng/mL LPS and compounds were treated afterward and cultured for 24 hours. After the incubation, the supernatant culture media was transferred to new 96-well plate.
Immediately after transferring media, cell-seeded wells were refilled with 100 μL of 10% FBS and 1% antibiotic-antimycotic containing DMEM. Then, 10 μL of Ez-cytox WST assay reagent was used to treat each well, following the manufacturer's protocol.
After incubating for 20 min in a 5% CO2 incubator at 37° C. with humidified atmosphere, absorbance was read at 450 nm.
Blank values were obtained from the well only treated with 10% FBS and 1% antibiotic-antimycotic containing DMEM.

[2] = test system: TNF-α secretion in Raw264.7 cell; experiment: ELISA of secreted TNF-α; conditions: Mus musculus, LPS 100 ng/mL, compounds 10 μM, read-out: TNF-α Inhibition Rate (%)
Experimental: Thus, in order to additionally confirm the inflammation inhibitory effects of Compounds 2f to 2l, the inhibition rate of TNF-α secretion was quantitatively measured by ELISA.
Cells were treated with each Compound 1d, or 2f to 2l, and LPS for 24 hours, followed by ELISA for TNF-α present in the culture solution.
In order to measure the amount of secreted TNF-α, Raw264.7 cell was seeded in transparent 96-well plate and maintained for 1 day. Media was aspirated after 1 day and replaced to serum-free DMEM with 1% (v/v) antibiotic-antimycotic solution. LPS and compounds were treated in a final concentration of 100 ng/mL and 10 μM.
Standard curve was plotted by the dose-dependent treatment of the control TNF-α protein provided with the ELISA kit. Blank value was measured by adding solutions without TNF-α substrate.
The TNF-α secretion inhibition rate of Compounds 1d, and 2f to 2l was confirmed, when compared with control groups.

SMILES | NO Inhibition rate (%) [1] | inhibitory effect on NO release, in words, compared with Compound 1d [1] | Relative Cell Viability (%) (Raw 264.7 cell) | inhibition at 10 µM [2]
CC1(C)Oc2ccccc2C2C1=CCn1c(=O)n(-c3ccccc3)c(=O)n12 (stereo not shown) [Compound 1a] | 83% |  |  | 
CNc1ccc2c(c1)OC(C)(C)C1=CCn3c(=O)n(-c4ccccc4)c(=O)n3C12 (stereo not shown) [Compound 1b] | 52% |  |  | 
CC1(C)Oc2cc(F)ccc2C2C1=CCn1c(=O)n(-c3ccccc3)c(=O)n12 (stereo not shown) [Compound 1c] | 79% |  |  | 
COc1ccc2c(c1)OC(C)(C)C1=CCn3c(=O)n(-c4ccccc4)c(=O)n3C12 (stereo not shown) [Compound 1e] | 44% |  |  | 
COc1ccc2c(c1)C1C(=CCn3c(=O)n(-c4ccccc4)c(=O)n31)C(C)(C)O2 (stereo not shown) [Compound 1f] | 55% |  |  | 
COc1cc2c(cc1OC)C1C(=CCn3c(=O)n(-c4ccccc4)c(=O)n31)C(C)(C)O2 (stereo not shown) [Compound 1g] | 44% |  |  | 
COc1ccc2c(c1O)OC(C)(C)C1=CCn3c(=O)n(-c4ccccc4)c(=O)n3C12 (stereo not shown) [Compound 1h] | 26% |  |  | 
CCCN1CCC2(CC1)Oc1cc(O)ccc1C1C2=CCn2c(=O)n(-c3ccccc3)c(=O)n21 (stereo not shown) [Compound 1i] | 47% | significantly reduced |  | 
CC(=O)N1CCC2(CC1)Oc1cc(O)ccc1C1C2=CCn2c(=O)n(-c3ccccc3)c(=O)n21 (stereo not shown) [Compound 1j] | 36% | significantly reduced |  | 
Cn1c(=O)n2n(c1=O)C1C(=CC2)C(C)(C)Oc2cc(O)ccc21 (stereo not shown) [Compound 2a] | 45% |  | 114% | 
CC1(C)Oc2cc(O)ccc2C2C1=CCn1c(=O)n(Cc3ccccc3)c(=O)n12 (stereo not shown) [Compound 2b] | 70% |  | 106% | 
CC1(C)Oc2cc(O)ccc2C2C1=CCn1c(=O)n(C3CCCCC3)c(=O)n12 (stereo not shown) [Compound 2c] | 63% |  | 117% | 
CC1(C)Oc2cc(O)ccc2C2C1=CCn1c(=O)n(-c3ccccc3I)c(=O)n12 (stereo not shown) [Compound 2d] |  |  | 109% | 
COc1ccccc1-n1c(=O)n2n(c1=O)C1C(=CC2)C(C)(C)Oc2cc(O)ccc21 (stereo not shown) [Compound 2e] |  |  | 115% | 
COc1cccc(-n2c(=O)n3n(c2=O)C2C(=CC3)C(C)(C)Oc3cc(O)ccc32)c1 (stereo not shown) [Compound 2f] | 96% |  | 118% | 38%
COc1ccc(-n2c(=O)n3n(c2=O)C2C(=CC3)C(C)(C)Oc3cc(O)ccc32)cc1 (stereo not shown) [Compound 2g] | 89% |  | 127% | 44%
CC1(C)Oc2cc(O)ccc2C2C1=CCn1c(=O)n(-c3ccc(F)cc3)c(=O)n12 (stereo not shown) [Compound 2h] | 87% |  | 109% | 44%
Cc1ccc(-n2c(=O)n3n(c2=O)C2C(=CC3)C(C)(C)Oc3cc(O)ccc32)cc1 (stereo not shown) [Compound 2i] | 94% |  | 130% | 45%
CC1(C)Oc2cc(O)ccc2C2C1=CCn1c(=O)n(-c3ccc4c(c3)OCO4)c(=O)n12 (stereo not shown) [Compound 2k] | 92% |  | 121% | 46%
CC1(C)Oc2cc(O)ccc2C2C1=CCn1c(=O)n(-c3ccc(C(F)(F)F)cc3)c(=O)n12 (stereo not shown) [Compound 2m] | 85% |  | 106% | 
CC1(C)Oc2cc(O)ccc2C2C1=CCn1c(=O)n(-c3ccc(C(C)(C)C)cc3)c(=O)n12 (stereo not shown) [Compound 2n] | 99% |  | 105% | 
CCCCc1ccc(-n2c(=O)n3n(c2=O)C2C(=CC3)C(C)(C)Oc3cc(O)ccc32)cc1 (stereo not shown) [Compound 2o] | 99% |  | 50% | 
